A short description of the series: gradient 5% acetonitrile 3 min, to 50% in 2 min, to 85% in 15 min, held 3 min, 100 µL/min. Particulars: column: Zorbax Extend-C18 2.1 x 50 mm; eluents: water / acetonitrile, 0.1% formic acid. An outline of the steps:
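Retention times come from adduct peaks that were picked computationally and then checked by hand. The standards, pure and pooled in mixtures of ~100 molecules, were run on a Zorbax Extend-C18 column (2.1 × 50 mm, 1.8 μm) at 100 μL/min with water and acetonitrile, each with 0.1% formic acid. Detection was by quadrupole time-of-flight mass spectrometry in positive and negative ionization mode, with a dead volume of 40 μL and a dwell volume of 900 μL.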
For `CCOC(=O)c1cc(OC)c(OC)cc1NC(=O)c1cc(OC)c(OC)c(OC)c1`, the RP-LC retention time turned out to be 1030 s.
As for `Cn1nc2n(c1=O)CCN(C(=O)C1(c3ccccc3)CCCC1)CC2`, the figure is 736 s.
As for `CCn1nc(C)n2cc(S(=O)(=O)NCc3cc(F)cc(F)c3)cc2c1=O`, the figure is 886 s; as for `CC(=O)Nc1ccc(S(=O)(=O)N2CCCn3nc(-c4cccc(Cl)c4)cc3C2)cc1`, 910 s.
The result for `O=C(Nc1c(-c2cccc(F)c2)nc2sc(N3CCCCC3)nn12)C1CC1` reads 897 s.
In turn, `COc1ccc(NC(=O)C2CCN(S(=O)(=O)c3c(C)nn(-c4ccccc4)c3C)CC2)cc1` gave an RP-LC retention time of 896 s.
Regarding `CCOC(=O)N1CCC(N2CCCC(COc3ccccc3C(=O)N3CCCC3)C2)CC1` (centres undefined), the RP-LC retention time worked out at 612 s.
`O=C(O)c1nnn(-c2ccccc2F)c1-c1ccccn1`: the RP-LC retention time was 657 s.
As for `O=C(CN1C(=O)C2CCCCN2C(=O)c2ccccc21)Nc1ccc(C(F)(F)F)cc1` (centres undefined), the figure is 890 s; as for `Cc1ccc(C2=NC3(CCN(C(=O)c4ccc(C(C)(C)C)cc4)CC3)ON2)cc1`, 975 s; as for `O=C([C@@H]1C[C@H](F)CN1S(=O)(=O)Cc1ccccc1F)N1CCc2ccccc2C1`, 919 s.
In the case of `COc1ccc(-c2ncccc2CNS(=O)(=O)c2c(C)cccc2Cl)cc1`, the RP-LC retention time was 719 s.
The compound `c1ccc(-c2nc(-c3ccncc3)no2)c(OC2CCN(Cc3ccc4c(c3)CCO4)C2)c1` (centres undefined) showed an RP-LC retention time of 611 s.
As to `Cc1ccn2cc(C(=O)NCc3ccccc3)nc2c1`, the RP-LC retention time amounted to 636 s.
In turn, `COc1cccc(-c2cc(N3CCN(C(=O)NC(C)C)CC3)ncn2)c1` yielded an RP-LC retention time of 612 s.
The result for `CCn1cc(C(=O)NCc2cccc(Br)c2)c2cccnc21` reads 854 s; that for `O=C(NC1CCCCC1)c1ccc2ccnc(N3CCN(c4ccccc4)CC3)c2c1`, 851 s; that for `O=C(Nc1ccc2ncnc(N3CCCCC3)c2c1)c1cccs1`, 670 s.
The result for `CCNC(=O)c1nc2cc(C)c(C)cc2n(C)c1=O` reads 698 s; that for `CCc1ccc(CNC(=O)Cn2cnc3nc4c(cc3c2=O)CCCC4)cc1`, 765 s; that for `CCOCCCNC(=O)CC1CCN(c2ccnc(OC)n2)CC1`, 574 s.
The result for `COC(=O)C1=C(C)NC2=C(C(=O)c3ccccc32)C1c1ccccc1OC` (centres undefined) reads 901 s.
The compound `Cc1cc(C2CCCN2C(=O)Nc2ccc(C)c(F)c2)no1` (centres undefined) came in with an RP-LC retention time of 818 s.
Take `O=C(c1ccncc1)N1CCCn2nc(-c3cccs3)cc2C1`: the RP-LC retention time is 642 s.
For `Cc1ccc(NC(=O)C2CC(=O)N(c3ccc4oc(C)nc4c3)C2)cc1` (centres undefined), the RP-LC retention time came to 749 s.
Compound `COc1ccc(OCc2nc(-c3ccc(NS(=O)(=O)c4cccs4)cc3)no2)cc1` gave an RP-LC retention time of 1040 s.
Turning to `COCCN1C(=O)c2ccccc2C(C(=O)NCc2ccccc2OC)C12CCCC2` (centres undefined), the RP-LC retention time stood at 855 s.
The result for `O=C(NCc1ccccc1F)c1cc(=O)n2c(nc3ccccc32)s1` reads 876 s; that for `O=C(NCC1CCN(S(=O)(=O)C2CC2)CC1)c1ccccn1`, 652 s.
`COC(=O)c1ccc(C(=O)OC)c(NC(=O)N2CCC(CN3CCC(C)CC3)CC2)c1` yielded an RP-LC retention time of 678 s.
`O=[N+]([O-])c1cn2c(n1)OC[C@@H](OCc1ccc(OC(F)(F)F)cc1)C2` yielded an RP-LC retention time of 916 s.
As for `CC(C)N1C(=O)c2cccnc2Sc2cc(NC(=O)C3CCCC3)ccc21`, the figure is 860 s; as for `CN(CC(=O)N1CC=C(c2ccccc2)CC1)S(=O)(=O)c1ccc2c(c1)CCCC(=O)N2`, 746 s; as for `Cc1ccccc1NC(=O)C(=O)c1ccc[nH]1`, 862 s.
The result for `O=C(NCc1ccccc1Cl)C1=C2CCCN2c2ccc(F)cc2S1(=O)=O` reads 913 s.
Regarding `CC(C)N1C(=O)c2cccnc2Sc2cc(NC(=O)C3CCC3)ccc21`, the RP-LC retention time amounted to 798 s.
`Cc1ccccc1NS(=O)(=O)c1ccc2c(c1)C(=O)N(C)c1ncccc1O2` came in with an RP-LC retention time of 892 s.
The result for `COc1ccc(CCc2nc3nccc(-c4ccncc4)n3n2)cc1` reads 697 s; that for `CNC(=O)[C@@H]1C[C@@H](O)CN1C1CCN(C(=O)CC2=CCCCC2)CC1`, 574 s.
With `CCOC(=O)c1csc(NC(=O)c2ccc3c(c2)OCCO3)n1`, the RP-LC retention time is 782 s.
As for `Cc1c(Cl)cccc1NC(=O)N1CCCC(C)(C(=O)NCc2ccccc2)C1` (centres undefined), the figure is 1010 s; as for `Cc1ccc(S(=O)(=O)N2C[C@@H](F)C[C@H]2C(=O)N2CCCCC2)cc1F`, 836 s.
In turn, `COc1cccc(C(=O)COc2cc(O)c3c(=O)cc(-c4ccccc4)oc3c2)c1` came in with an RP-LC retention time of 1170 s.
The compound `COCCn1cc2c3c(cccc31)CN(C(=O)NCc1ccc(F)cc1)CC2` showed an RP-LC retention time of 842 s.
The result for `COc1ccccc1N1CCN(c2cc(SCC(=O)Nc3cccc(Cl)c3F)ncn2)CC1` reads 1270 s.
As for `COc1ccc(OCc2noc(CNS(=O)(=O)CCN3C(=O)CCCC3=O)n2)cc1`, the figure is 693 s; as for `CC(C)Cc1cc(-c2nnc3sc(-c4ccc(N(C)C)cc4)nn23)n[nH]1`, 1060 s; as for `CN(CC1(C)CCOCC1)C(=O)COc1ccc(Cl)cc1`, 816 s.
In turn, `O=C1NCCCn2cc(S(=O)(=O)N3CCN(c4cccc(C(F)(F)F)c4)CC3)cc21` yielded an RP-LC retention time of 830 s.
As for `O=C(COc1ccccc1Cl)N1CCCCC1CCN1CCCC1` (centres undefined), the figure is 656 s; as for `Cc1noc(-c2nn(C)c3c2CN(C(=O)c2cc(F)ccc2F)CC3)n1`, 737 s.
As for `Cc1cc(C)cc(S(=O)(=O)Nc2ccc3nc(N4CCN(CCC#N)CC4)cc(C(=O)O)c3c2)c1`, the figure is 658 s; as for `O=C(CN1C(=O)CCCc2cc(S(=O)(=O)N3CCCCC3)ccc21)NCc1ccccc1Cl`, 909 s.
For `COc1cccc(-c2nnc(SCc3cc(=O)n4c(C)csc4n3)o2)c1`, the RP-LC retention time was determined as 840 s.
As for `CC(=O)N1CCC2(CC1)CC(=O)c1ccc(O)c(O)c1O2`, the figure is 585 s; as for `O=C(Cc1cccs1)N1CCN(C(=O)c2cc3cc(Br)ccc3[nH]2)CC1`, 866 s; as for `O=C(Cc1c(Sc2ccc(F)cc2)[nH]c2ccccc12)N1CCN(c2ncccn2)CC1`, 966 s.
In turn, `COc1ccc(CCc2nc3nccc(-c4ccccn4)n3n2)cc1OC` showed an RP-LC retention time of 752 s.
As for `O=C(Nc1ccc(SCc2ccccc2F)nn1)c1cccs1`, the figure is 942 s; as for `CCC(C(=O)NCCCN1CCN(C)CC1)n1c2ccccc2c2cnn(C)c(=O)c21` (centres undefined), 560 s.
Consider `Cc1noc(C)c1S(=O)(=O)N1CCC(Cc2nc(-c3cccnc3)n[nH]2)C1` (centres undefined), for which the RP-LC retention time worked out at 624 s.
The result for `Cc1ccsc1CN1CCn2c(nnc2[C@@H]2C[C@@H](O)CN2Cc2cccnc2)C1` reads 591 s.
For `Cc1nc2c(OCc3ccccc3)cccn2c1CC#N`, the RP-LC retention time is 655 s.
As for `Cc1cc(N2CCC(C)CC2)n2nc(-c3ccc(Cl)cc3)nc2n1`, the figure is 1170 s.
As for `CCCN1C(=O)COc2ccc(-c3csc(NC(=O)c4ccc(Br)cc4)n3)cc21`, the figure is 1160 s; as for `COc1ccc(N2C=C(C(=O)N3CCOCC3)S(=O)(=O)c3ccc(Cl)cc32)cc1`, 770 s.
As to `CCN1CCCc2cc(C(=O)N3CCC4(CC3)OCCO4)sc21`, the RP-LC retention time was determined as 603 s.
As for `Cc1cccc2c(C(N)=O)cc(-c3ccccc3)nc12`, the figure is 904 s.
The result for `NC(=O)C1CCN(C(=O)CN2CCc3ccccc32)CC1` reads 610 s; that for `O=C(NCCc1ccccc1)C1c2ccccc2C(=O)N1Cc1ccc2c(c1)OCO2` (centres undefined), 865 s.
As for `CCN(CC)CCNC(=O)c1cc2n(n1)CC(C)(C(=O)NCc1ccc(F)cc1)N(C)C2=O` (centres undefined), the figure is 589 s; as for `CCc1c(C2CCN(C(=O)c3ccnn3C)CC2)noc1N`, 596 s.
`Cc1ccc(C(=O)N2CCC3(CC2)NC(=O)c2cc(C)ccc2N3C)cc1` displayed an RP-LC retention time of 805 s.
The result for `CC(C)(C)NC(=O)NC1CCN(c2nc3cccnc3n(Cc3ccccc3)c2=O)CC1` reads 995 s; that for `c1ccc(-n2ncc3c(Nc4ccc5c(c4)OCO5)nc(N4CCCC4)nc32)cc1`, 1350 s; that for `CNC(=O)[C@@H]1CN(C(=O)c2ccc3c(c2)OCO3)C[C@H]1c1n[nH]c(C)n1`, 580 s.
As for `Cc1cccc(NC(=O)Cn2c(C(C)C)nc3c(c2=O)CCN(Cc2ccccc2)C3)c1`, the figure is 728 s; as for `Cc1ccc(-c2cc(OCC(N)=O)c3cc(NC(=O)COc4ccccc4)ccc3n2)cc1`, 700 s.
On to `CCc1nc2cc(N3CCC(C(=O)NC(C)c4ccccn4)CC3)cnc2nc1CC` (centres undefined), for which the RP-LC retention time turned out to be 628 s.

Source of the values: the METLIN SMRT retention time set (Domingo-Almenara et al. 2019).
